# Reference: ChEMBL document CHEMBL5724696, “Autophagy assay results for EUbOPEN Chemogenomics Library” (2024)
# Legend:
# Assay type in all cases: functional, Homo sapiens
# [1] = test system: U2OS; test: (§1) Here: values are normalized to the negative (DMSO; defined as 0% autophagy induction) and positive (250nM Torin1; mTOR inhibitor; defined as maximal inducer of autophagy = 100%) control compounds and represented as % of autophagy induction. […] The impact of autophagy induction on cells is complex and depends on the affected target. As such, the magnitude of a phenotype may not be equally mirrored in the %-value of autophagy induction and vice versa. The dynamics of the induction may indicate the mode of activation: e.g. activation via phosphorylation or a signaling cascade may occur fast, while activation via transcription factors may take considerably longer. […] Of note, treatment concentrations may be sub-optimal for specific compounds, leading to false negative annotations.; conditions: Culturing Media DMEM, 1 % Penicillin/Streptomycin, 10% Fetal bovin serum Add-On: No, Screening Media Control DMEM, Screening Media Samples DMEM
# [2] = test system: TERT-RPE1; test: as §1; conditions: Culturing Media DMEM/F12 (1:1), 1 % Penicillin/Streptomycin, 10% Fetal bovin serum Add-On: No, Screening Media Control DMEM/F12 (1:1), Screening Media Samples DMEM/F12 (1:1)
# [3] = test system: U2OS; test: as §1; conditions: Culturing Media DMEM, 1 % Penicillin/Streptomycin, 10% Fetal bovin serum Add-On: No, Screening Media Control DMEM, Screening Media Samples DMEM; remark: listed apart in the source
# [4] = Compound Concentration 0.5 uM, Timepoint 12 hours
# [5] = Compound Concentration 0.5 uM, Timepoint 24 hours
# [6] = Compound Concentration 0.5 uM, Timepoint 36 hours
# [7] = Compound Concentration 0.5 uM, Timepoint 60 hours
# [8] = Compound Concentration 2 uM, Timepoint 12 hours
# [9] = Compound Concentration 2 uM, Timepoint 24 hours
# [10] = Compound Concentration 2 uM, Timepoint 36 hours
# [11] = Compound Concentration 2 uM, Timepoint 60 hours
# [12] = Compound Concentration 10 uM, Timepoint 12 hours
# [13] = Compound Concentration 10 uM, Timepoint 24 hours
# [14] = Compound Concentration 10 uM, Timepoint 36 hours
# [15] = Compound Concentration 10 uM, Timepoint 60 hours
smiles,measurement,setting,value
Cc1c(P(=S)(c2ccccc2)c2ccccc2)n2ccccc2[n+]1C/C=C/c1ccccc1.[Br-],autophagy induction,[1]; [4],-4.037%
same,autophagy induction,[1]; [5],-2.741%
same,autophagy induction,[1]; [6],-2.914%
same,autophagy induction,[1]; [7],-1.509%
same,autophagy induction,[1]; [8],-1.2597%
same,autophagy induction,[1]; [9],-1.1621%
same,autophagy induction,[1]; [10],-2.341%
same,autophagy induction,[1]; [11],-2.536%
same,autophagy induction,[1]; [12],-27.5654%
same,autophagy induction,[1]; [13],-9.802%
same,autophagy induction,[1]; [14],-1.3311%
same,autophagy induction,[1]; [15],3.649%
same,autophagy induction,[2]; [4],-3.105%
same,autophagy induction,[2]; [5],-8.592%
same,autophagy induction,[2]; [6],-12.0302%
same,autophagy induction,[2]; [7],-17.0508%
same,autophagy induction,[2]; [8],2.878%
same,autophagy induction,[2]; [9],-0.5859%
same,autophagy induction,[2]; [10],1.195%
same,autophagy induction,[2]; [11],-1.818%
same,autophagy induction,[2]; [12],24.7841%
same,autophagy induction,[2]; [13],51.8106%
same,autophagy induction,[2]; [14],73.7567%
same,autophagy induction,[2]; [15],96.4076%
same,autophagy induction,[3]; [4],-3.655%
same,autophagy induction,[3]; [5],0.9546%
same,autophagy induction,[3]; [6],-1.282%
same,autophagy induction,[3]; [7],2.215%
same,autophagy induction,[3]; [8],-8.9%
same,autophagy induction,[3]; [9],-2.047%
same,autophagy induction,[3]; [10],1.308%
same,autophagy induction,[3]; [11],3.722%
same,autophagy induction,[3]; [12],47.8904%
same,autophagy induction,[3]; [13],55.2067%
same,autophagy induction,[3]; [14],55.7211%
same,autophagy induction,[3]; [15],73.829%
Cc1cn2cc(CC(=O)N3CCC4(CC3)CN(Cc3ccc(-n5nccn5)cc3Cl)C4)nc2s1,autophagy induction,[1]; [4],1.123%
same,autophagy induction,[1]; [5],-3.762%
same,autophagy induction,[1]; [6],-1.928%
same,autophagy induction,[1]; [7],-1.19%
same,autophagy induction,[1]; [8],-4.678%
same,autophagy induction,[1]; [9],-1.951%
same,autophagy induction,[1]; [10],-1.585%
same,autophagy induction,[1]; [11],-1.336%
same,autophagy induction,[1]; [12],-3.342%
same,autophagy induction,[1]; [13],-3.411%
same,autophagy induction,[1]; [14],-3.208%
same,autophagy induction,[1]; [15],-4.891%
same,autophagy induction,[2]; [4],-2.947%
same,autophagy induction,[2]; [5],-6.082%
same,autophagy induction,[2]; [6],-10.2542%
same,autophagy induction,[2]; [7],-15.5621%
same,autophagy induction,[2]; [8],-4.023%
same,autophagy induction,[2]; [9],-6.112%
same,autophagy induction,[2]; [10],-7.965%
same,autophagy induction,[2]; [11],-11.2776%
same,autophagy induction,[2]; [12],6.864%
same,autophagy induction,[2]; [13],5.224%
same,autophagy induction,[2]; [14],5.8937%
same,autophagy induction,[2]; [15],9.679%
same,autophagy induction,[3]; [4],-19.4257%
same,autophagy induction,[3]; [5],-11.2688%
same,autophagy induction,[3]; [6],-14.8033%
same,autophagy induction,[3]; [7],-9.0407%
same,autophagy induction,[3]; [8],2.217%
same,autophagy induction,[3]; [9],1.46%
same,autophagy induction,[3]; [10],0.9512%
same,autophagy induction,[3]; [11],5.325%
same,autophagy induction,[3]; [12],-2.971%
same,autophagy induction,[3]; [13],3.988%
same,autophagy induction,[3]; [14],2.68%
same,autophagy induction,[3]; [15],3.422%
O=C(Nc1ccc(Cl)cc1)Nc1cccc(-c2cccc(N3CCCC3)n2)c1,autophagy induction,[1]; [4],3.433%
same,autophagy induction,[1]; [5],-0.7352%
same,autophagy induction,[1]; [6],-0.9133%
same,autophagy induction,[1]; [7],-1.608%
same,autophagy induction,[1]; [8],-0.4509%
same,autophagy induction,[1]; [9],-1.587%
same,autophagy induction,[1]; [10],-2.698%
same,autophagy induction,[1]; [11],-2.799%
same,autophagy induction,[1]; [12],-2.177%
same,autophagy induction,[1]; [13],-0.7353%
same,autophagy induction,[1]; [14],-4.281%
same,autophagy induction,[1]; [15],0.461%
same,autophagy induction,[2]; [4],-4.744%
same,autophagy induction,[2]; [5],-3.44%
same,autophagy induction,[2]; [6],1.901%
same,autophagy induction,[2]; [7],11.3473%
same,autophagy induction,[2]; [8],-2.257%
same,autophagy induction,[2]; [9],-2.102%
same,autophagy induction,[2]; [10],-2.6063%
same,autophagy induction,[2]; [11],-0.1832%
same,autophagy induction,[2]; [12],-0.5349%
same,autophagy induction,[2]; [13],20.6675%
same,autophagy induction,[2]; [14],44.4615%
same,autophagy induction,[2]; [15],64.0305%
same,autophagy induction,[3]; [4],17.3616%
same,autophagy induction,[3]; [5],17.7757%
same,autophagy induction,[3]; [6],11.2699%
same,autophagy induction,[3]; [7],1.747%
same,autophagy induction,[3]; [8],20.6353%
same,autophagy induction,[3]; [9],15.806%
same,autophagy induction,[3]; [10],8.553%
same,autophagy induction,[3]; [11],8.133%
same,autophagy induction,[3]; [12],-2.269%
same,autophagy induction,[3]; [13],13.0876%
same,autophagy induction,[3]; [14],22.7984%
same,autophagy induction,[3]; [15],31.1337%
Cc1cc(C)cc(C(=O)N(C)[C@H](Cc2ccc(-c3ccccc3)cc2)C(=O)N[C@@H](Cc2c[nH]c3ccccc23)C(=O)O)c1,autophagy induction,[1]; [4],-3.328%
same,autophagy induction,[1]; [5],-1.823%
same,autophagy induction,[1]; [6],-2.116%
same,autophagy induction,[1]; [7],-0.69%
same,autophagy induction,[1]; [8],4.263%
same,autophagy induction,[1]; [9],2.513%
same,autophagy induction,[1]; [10],-0.01148%
same,autophagy induction,[1]; [11],-0.5825%
same,autophagy induction,[1]; [12],3.263%
same,autophagy induction,[1]; [13],3.281%
same,autophagy induction,[1]; [14],1.189%
same,autophagy induction,[1]; [15],0.3614%
same,autophagy induction,[2]; [4],-14.7352%
same,autophagy induction,[2]; [5],-10.2057%
same,autophagy induction,[2]; [6],-9.628%
same,autophagy induction,[2]; [7],-6.49%
same,autophagy induction,[2]; [8],-8.48%
same,autophagy induction,[2]; [9],-8.155%
same,autophagy induction,[2]; [10],-8.294%
same,autophagy induction,[2]; [11],-6.276%
same,autophagy induction,[2]; [12],-5.809%
same,autophagy induction,[2]; [13],-2.795%
same,autophagy induction,[2]; [14],-2.603%
same,autophagy induction,[2]; [15],-5.126%
same,autophagy induction,[3]; [4],20.0451%
same,autophagy induction,[3]; [5],13.0827%
same,autophagy induction,[3]; [6],8.17%
same,autophagy induction,[3]; [7],4.398%
same,autophagy induction,[3]; [8],5.392%
same,autophagy induction,[3]; [9],1.718%
same,autophagy induction,[3]; [10],-3.298%
same,autophagy induction,[3]; [11],-11.258%
same,autophagy induction,[3]; [12],17.6344%
same,autophagy induction,[3]; [13],16.7447%
same,autophagy induction,[3]; [14],13.7232%
same,autophagy induction,[3]; [15],11.2064%
